Data reported in PubChem BioAssay AID330 (DTP/NCI, 2004).
Values joined by “and” are separate entries in the source; they are usually repeats but may differ in a detail not shown here. Identical values can stand only once. Inconclusive results and toxic doses are left out.

Tested on: P388 leukemia ip, CD2F1 mice, survival T/C
Assay: NCI In Vivo Anticancer Drug Screen. Data for tumor model P388 Leukemia (intraperitoneal) in CD2F1 (CDF1) mice
Settings: endpoint: median survival time, higher = longer survival
In short: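 Mice carrying the transplanted tumor received test compound or vehicle. Survival was recorded in each group, and the value is the treated-group measurement divided by that of the vehicle-treated control group.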

[1] = dose: 100.0 mg/kg/injection, schedule: Q01DX001 (ip), vehicle: Klucel (hydroxypropylcellulose) (HPC)
[2] = dose: 200.0 mg/kg/injection, schedule: Q01DX001 (ip), vehicle: Klucel (hydroxypropylcellulose) (HPC)
[3] = dose: 50.0 mg/kg/injection, schedule: Q01DX009 (ip), vehicle: saline with Tween-80
[4] = dose: 100.0 mg/kg/injection, schedule: Q01DX009 (ip), vehicle: saline with Tween-80
[5] = dose: 200.0 mg/kg/injection, schedule: Q01DX009 (ip), vehicle: saline with Tween-80
[6] = dose: 50.0 mg/kg/injection, schedule: Q01DX005 (ip), vehicle: saline with Tween-80
[7] = dose: 100.0 mg/kg/injection, schedule: Q01DX005 (ip), vehicle: saline with Tween-80
[8] = dose: 200.0 mg/kg/injection, schedule: Q01DX005 (ip), vehicle: saline with Tween-80
[9] = dose: 50.0 mg/kg/injection, schedule: Q01DX009 (ip), vehicle: Klucel (hydroxypropylcellulose) (HPC)
[10] = dose: 100.0 mg/kg/injection, schedule: Q01DX009 (ip), vehicle: Klucel (hydroxypropylcellulose) (HPC)
[11] = dose: 200.0 mg/kg/injection, schedule: Q01DX009 (ip), vehicle: Klucel (hydroxypropylcellulose) (HPC)
[12] = dose: 60.0 mg/kg/injection, schedule: Q01DX005 (ip), vehicle: saline with Tween-80
[13] = dose: 120.0 mg/kg/injection, schedule: Q01DX005 (ip), vehicle: saline with Tween-80
[14] = dose: 240.0 mg/kg/injection, schedule: Q01DX005 (ip), vehicle: saline with Tween-80
[15] = dose: 50.0 mg/kg/injection, schedule: Q01DX009 (ip), vehicle: saline

`Cc1ccc(NP(=S)(Nc2ccc(C)cc2C)Nc2ccc(C)cc2C)c(C)c1` was tested, and the T/C (dose: 60.0 mg/kg/injection, schedule: Q01DX005 (ip), vehicle: Klucel (hydroxypropylcellulose) (HPC)) was 97 % of control, the T/C (dose: 120.0 mg/kg/injection, schedule: Q01DX005 (ip), vehicle: Klucel (hydroxypropylcellulose) (HPC)) was 100 % of control and the T/C (dose: 240.0 mg/kg/injection, schedule: Q01DX005 (ip), vehicle: Klucel (hydroxypropylcellulose) (HPC)) was 100 % of control.

With `Cc1ccc(C(C(C)[N+](=O)[O-])C(C(=O)c2ccccc2)S(=O)(=O)c2ccccc2)cc1` (stereo not drawn) the T/C (dose: 50.0 mg/kg/injection, schedule: Q01DX005 (ip), vehicle: Klucel (hydroxypropylcellulose) (HPC)) was 93 % of control, the T/C (dose: 100.0 mg/kg/injection, schedule: Q01DX005 (ip), vehicle: Klucel (hydroxypropylcellulose) (HPC)) was 106 % of control and 91 % of control and the T/C (dose: 200.0 mg/kg/injection, schedule: Q01DX005 (ip), vehicle: Klucel (hydroxypropylcellulose) (HPC)) was 106 % of control and 89 % of control.

`COc1ccc2c(c1)[C@@]13CCCC[C@H]1[C@H](N(C)CC3)C21CC1` was tested, and the T/C [1] was 97 % of control and the T/C [2] was 102 % of control.

With `Cc1ccc(S(=O)(=O)NN=C2C3CCC2CC3)cc1` the T/C [3] was 111 % of control, the T/C [4] was 108 % of control and the T/C [5] was 118 % of control.

With `N#C/C(=C1/NC(=O)c2ccccc21)c1nc2ccccc2s1` the T/C [3] was 89 % of control, the T/C [4] was 90 % of control and the T/C [5] was 96 % of control.

For `[Cl][Pt+2][Cl].[NH-]Cc1ccccc1[NH-]`, the T/C (dose: 6.25 mg/kg/injection, schedule: Q04DX002 (ip), vehicle: saline with Tween-80) was 164 % of control, the T/C (dose: 12.5 mg/kg/injection, schedule: Q04DX002 (ip), vehicle: saline with Tween-80) was 164 % of control and the T/C (dose: 25.0 mg/kg/injection, schedule: Q04DX002 (ip), vehicle: saline with Tween-80) was 167 % of control.

For `CC1=CC2N(C=C1)C(c1cccc([N+](=O)[O-])c1)=NON2c1cc(C)ccn1` (stereo not drawn), the T/C [6] was 91 % of control, the T/C [7] was 87 % of control and 89 % of control and the T/C [8] was 87 % of control and 90 % of control.

In the case of `Cc1cc(NS(=O)(=O)c2ccc(Nc3ccnc4cc(Cl)ccc34)cc2)no1`, the T/C [6] is reported as 92 % of control, the T/C [7] is reported as 86 % of control and the T/C [8] is reported as 92 % of control.

For `Nc1nc(SCc2ccccc2)sc1C(=O)N1CCCCC1`, the T/C [9] was 100 % of control, the T/C [10] was 100 % of control and the T/C [11] was 101 % of control.

In the case of `Cc1nn(C(=O)c2cccnc2)c(-c2ccccc2)c1N=Nc1ccc(S(N)(=O)=O)cc1`, the T/C (dose: 100.0 mg/kg/injection, schedule: Q04DX002 (ip), vehicle: saline with Tween-80) is reported as 90 % of control, the T/C (dose: 200.0 mg/kg/injection, schedule: Q04DX002 (ip), vehicle: saline with Tween-80) is reported as 90 % of control and the T/C (dose: 400.0 mg/kg/injection, schedule: Q04DX002 (ip), vehicle: saline with Tween-80) is reported as 95 % of control.

In the case of `CC12CC(OC(=O)[C@]1(C)O)[C@@H]([C@]1(O)CC[C@H]3[C@@H]4C[C@H]5O[C@]56[C@@H](O)C=CC(=O)[C@]6(C)[C@H]4CC[C@@]31C)C2` (stereo partly drawn), the T/C (dose: 2.0 mg/kg/injection, schedule: Q01DX009 (ip), vehicle: saline + alcohol) is reported as 100 % of control, the T/C (dose: 4.0 mg/kg/injection, schedule: Q01DX005 (ip), vehicle: saline + alcohol) is reported as 108 % of control and 120 % of control and the T/C (dose: 4.0 mg/kg/injection, schedule: Q01DX009 (ip), vehicle: saline + alcohol) is reported as 105 % of control. The T/C (dose: 8.0 mg/kg/injection, schedule: Q01DX005 (ip), vehicle: saline + alcohol) was 110 % of control and 111 % of control, the T/C (dose: 8.0 mg/kg/injection, schedule: Q01DX009 (ip), vehicle: saline + alcohol) was 96 % of control and the T/C (dose: 16.0 mg/kg/injection, schedule: Q01DX005 (ip), vehicle: saline + alcohol) was 109 % of control and 111 % of control. For the same compound, the T/C (dose: 16.0 mg/kg/injection, schedule: Q01DX009 (ip), vehicle: saline + alcohol) was 96 % of control, the T/C (dose: 32.0 mg/kg/injection, schedule: Q01DX005 (ip), vehicle: saline + alcohol) was 107 % of control and the T/C (dose: 32.0 mg/kg/injection, schedule: Q01DX009 (ip), vehicle: saline + alcohol) was 87 % of control.

`Fc1ccc(C=NC23CC4CC(CC(C4)C2)C3)cc1` was tested, and the T/C [3] was 93 % of control, the T/C [4] was 91 % of control and the T/C [5] was 97 % of control.

With `OC1(C(F)(F)F)NN2C=CC=CC2=NO1` (stereo not drawn) the T/C [12] was 95 % of control, the T/C [13] was 96 % of control and the T/C [14] was 100 % of control.

With `COc1ccc(-c2nc3[nH]c(=S)[nH]c(=O)c3nc2-c2ccc(OC)c(OC)c2)cc1OC` the T/C [1] was 103 % of control, the T/C [2] was 105 % of control and the T/C (dose: 400.0 mg/kg/injection, schedule: Q01DX001 (ip), vehicle: Klucel (hydroxypropylcellulose) (HPC)) was 90 % of control.

In the case of `CN1CCC2=C(C1)C(c1ccccc1)c1ccccc12` (stereo not drawn), the T/C (dose: 33.0 mg/kg/injection, schedule: Q01DX009 (ip), vehicle: saline) is reported as 107 % of control, the T/C [15] is reported as 104 % of control and the T/C (dose: 75.0 mg/kg/injection, schedule: Q01DX009 (ip), vehicle: saline) is reported as 107 % of control.

For `O=C1C(CCl)(CCl)CCC12CNC(Cl)(Cl)C2` (stereo not drawn), the T/C [6] was 97 % of control, the T/C [7] was 97 % of control and the T/C [8] was 102 % of control.

In the case of `CCCCSP(Oc1ccccc1)SCCCC`, the T/C (dose: 25.0 mg/kg/injection, schedule: Q04DX003 (ip), vehicle: Klucel (hydroxypropylcellulose) (HPC)) is reported as 100 % of control, the T/C (dose: 50.0 mg/kg/injection, schedule: Q04DX003 (ip), vehicle: Klucel (hydroxypropylcellulose) (HPC)) is reported as 108 % of control and the T/C (dose: 100.0 mg/kg/injection, schedule: Q04DX003 (ip), vehicle: Klucel (hydroxypropylcellulose) (HPC)) is reported as 109 % of control.

`O=C1CCCCC1C1=CCCCC1` (stereo not drawn) was tested, and the T/C [9] was 109 % of control, the T/C [10] was 95 % of control and the T/C [11] was 100 % of control. For the same compound, the T/C (dose: 400.0 mg/kg/injection, schedule: Q01DX009 (ip), vehicle: Klucel (hydroxypropylcellulose) (HPC)) was 92 % of control.

With `O=C(O)c1c(Cl)c(Cl)c(Cl)c(Cl)c1-c1c2cc(I)c(=O)c(I)c-2oc2c(I)c(O)c(I)cc12` the T/C (dose: 12.5 mg/kg/injection, schedule: Q01DX009 (ip), vehicle: saline) was 103 % of control, the T/C (dose: 25.0 mg/kg/injection, schedule: Q01DX009 (ip), vehicle: saline) was 88 % of control and the T/C [6] was 92 % of control. For the same compound, the T/C [15] was 88 % of control and 91 % of control, the T/C [7] was 86 % of control and the T/C (dose: 100.0 mg/kg/injection, schedule: Q01DX009 (ip), vehicle: saline) was 97 % of control.

For `c1ccc(SC2=C(Sc3ccccc3)CC2)cc1`, the T/C [6] was 102 % of control, the T/C [7] was 111 % of control and the T/C [8] was 102 % of control.

In the case of `CC(CN(C)C)C(/C=C/c1ccc(F)cc1)=N\Nc1ccccc1` (stereo not drawn), the T/C [12] is reported as 102 % of control and the T/C [13] is reported as 122 % of control.

For `CCCCCCCCCCCCCCCC[N+]1(CC)CCOCC1` (tested in a mixture with another compound), the T/C (dose: 3.13 mg/kg/injection, schedule: Q01DX009 (ip), vehicle: Klucel (hydroxypropylcellulose) (HPC)) was 96 % of control, the T/C (dose: 6.25 mg/kg/injection, schedule: Q01DX009 (ip), vehicle: Klucel (hydroxypropylcellulose) (HPC)) was 113 % of control and the T/C (dose: 12.5 mg/kg/injection, schedule: Q01DX009 (ip), vehicle: Klucel (hydroxypropylcellulose) (HPC)) was 115 % of control.

In the case of `CC1(C)CC(=O)C2=C(C1)NC(=O)CC2`, the T/C [12] is reported as 101 % of control, the T/C [13] is reported as 101 % of control and the T/C [14] is reported as 96 % of control.

In the case of `N=c1c(C(N)=O)cnc2n1CCCCC2`, the T/C (dose: 25.0 mg/kg/injection, schedule: Q04DX003 (ip), vehicle: saline) is reported as 100 % of control, the T/C (dose: 50.0 mg/kg/injection, schedule: Q04DX003 (ip), vehicle: saline) is reported as 100 % of control and the T/C (dose: 100.0 mg/kg/injection, schedule: Q04DX003 (ip), vehicle: saline) is reported as 98 % of control.

`O=C(O)C12CCC(c3ccccc31)c1ccccc12` was tested, and the T/C [12] was 101 % of control, the T/C [13] was 107 % of control and the T/C [14] was 100 % of control.
